Measured values reported in patent US12138300B2, “Methods and compositions for inducing neural plasticity” (CASE WESTERN RESERVE UNIVERSITY, priority 2018, dated 2024).

What was measured:
[1] = system: stroke mice; test: Survival of stroke mice after tMCAO with post-stroke treatment; format: in vivo, mouse
Procedure: First, the efficacy of post-stroke ISP treatment in the C57BL/6 mouse was tested using a proximal middle cerebral artery occlusion (pMCAO) model. Three cohorts of mice (n=59) were subjected to MCAO surgery to induce a large stroke in both striatal and cortical tissue, mimicking a human “malignant” stroke, which tends to be fatal in humans. Stroke mice were subjected to T2 weighted MRI scanning to determine the size of the stroke injury and were grouped blindly into two equally distributed groups that received either daily vehicle (5% DMSO) or daily ISP (20 μg/mouse/day or 30 μg/mouse/day S.C. injections) treatment starting from 24 hours after stroke onset for 6 weeks.
Transient middle cerebra artery occlusion (tMCAO) was induced in male C57BL/6 mice (12 weeks old, 25-30 g) by intraluminal occlusion of the left MCA for 45 min with silicone rubber-coated monofilament (Cat. 602212PK10Re and 602312PK10Re, Doccol Corporation). Briefly, mice were anesthetized with isoflurance. Body temperature was monitored and maintained at 37±0.5° C. by homeothermic blanket control unit (Harvard apparatus). To minimize animal's pain, mice were subcutaneously injected with buprenorphine. […] To ensure consistent and successful blockage of MCA, regional cerebral blood flow was monitored in all stroke animals by Laser Doppler flowmetry (PeriFlux system 5000, Perimed, Sweden). […]

[2] = system: stroke mice; test: Computer automated open field locomotion analysis in stroke mice; format: in vivo, mouse
Procedure: First, the efficacy of post-stroke ISP treatment in the C57BL/6 mouse was tested using a proximal middle cerebral artery occlusion (pMCAO) model. Three cohorts of mice (n=59) were subjected to MCAO surgery to induce a large stroke in both striatal and cortical tissue, mimicking a human “malignant” stroke, which tends to be fatal in humans. […]
To test the timing of ISP administration relative to the time of injury, and the corresponding effect on recovery, adult C57bl/6J female and male mice were subjected to transient proximal MCAO surgery (35 min) as described above. […]
Mice motor activities were assessed using Accuscan activity monitor (Columbus, OH, USA) one day before and 3, 7, 14, 21, 35 and 42 days after tMCAO as previously described. […] To avoid observer bias, this locomotor test was automatically monitored by the computer and software. Locomotor activity was calculated by automated Versamax software (Accuscan, Columbus, OH, USA). The following variables were measured: (A) horizontal activity (the total number of beam interruptions that occurred in the horizontal sensors); (B) total distance traveled (cm, the distance traveled by the animals); (C) Vertical activity (the total number of beam interruptions that occurred in vertical sensors).

[3] = system: stroke mice; test: Adhesive removal test (sensorimotor function) in stroke mice; format: in vivo, mouse; conditions: post-stroke treatment
Procedure: This test was performed on days 7, 14, 21, 28, 35 and 42 post-stroke in order to examine the sensorimotor deficits. Each mice was placed into transparent cylinder (15 cm diameter) during a habituation period of 1 min Thereafter, two different colored adhesive labels (2.5 mm diameter made by punch, Tough Spots) were applied with equal pressure on each mouse's forepaw. The times required to remove the adhesive labels were measured with a maximum of 2 min. To achieve an optimum level of performance, mice should be trained for 4 days before surgery.

[4] = system: stroke mice; test: Barnes maze test (cognitive function) in stroke mice; format: in vivo, mouse; conditions: 4 weeks after stroke; vs vehicle
Excerpt: The spatial memory of ischemic mice was examined using Barnes maze (Stoelting Company, WoodDale, IL, USA) 28 days after tMCAO. The maze consists of a 91.5 cm diameter circular platform with 20 holes around the perimeter. Mice were discouraged to idle around aimlessly by blowing fans and a bright light above the platform. At day 0, mice were gently guided to enter the target hole after removing the start chamber. At day 1, mice were trained for 4 trials in 2 sessions to find the escape tunnel placed under the target hole. Once mice entered the target hole, the hole was covered and mice were allowed to stay in it for 2 min. If mice could not locate the target hole within 5 min, mice were guided by the observer to enter the target hole. At day 2, one trial was run and video-taped until the mouse getting into the target hole or stopped at 5 mins when the mouse could not locate the target hole. Time spent to locate the escaping hole and error numbers in finding the hiding hole made by the mouse were measured by an observer in a blinded fashion.

[5] = system: stroke mice; test: Quantification of brain atrophy in stroke animals; format: in vivo, mouse; conditions: post-stroke 6-week brain sections
Procedure: The post-stroke 6-week brain sections (25 μm) were mounted on PLL-coated slides. The sections were rehydrated in KH2PO4 buffer (pH 4.5) for 10 min, and then stained in pre-warm 10% Giemsa solution for 30 min at 42° C. After a brief rinse with KH2PO4 buffer, sections were dehydrated in absolute ethanol, cleared in xylene and mounted with Histoseal. A set of serial sections was imaged by Path Scan Enabler IV slide scanner. Contralateral and ipsilateral brain areas were quantified using ImageJ software. The calculation formula of atrophy rate is as follows: Σ (contralateral brain area−ipsilateral brain area)/Σ contralateral brain area×100%.

[6] = system: stroke mice; test: DCX+ neuroblast formation in post-stroke mice; format: in vivo, mouse; conditions: post-stroke treatment; vs vehicle
[7] = system: stroke mice; test: Anterograde BDA tracing and quantification of corticospinal tract axonal sprouting; format: in vivo, mouse; conditions: post-stroke treatment; crossed CST fibers at cervical spinal cord, BDA tracing
Procedure: Four weeks after tMCAO, mice were anesthetized with 1.5% isoflurane/oxygen mixture and stabilized in a stereotaxic frame. 1.5 μl of the biotin dextran amine (BDA, MW10,000; 10% in PBS, invitrogen) were injected at three sites in the contralesional cortex (coordinates: 1. A/P 0.0 mm, M/L −2 mm, D/V −1 mm; 2.A/P 0.5 mm, M/L-1.5 mm, D/V-1 mm; 3. A/P 0.5 mm, M/L −2 mm, D/V −1 mm) Two weeks later, brain and cervical spinal cord were harvested after cardiac perfusion with PBS followed by 4% paraformaldehyde. After post-fix overnight in 4% paraformaldehyde and cryoprotection in 20% and 30% sucrose, coronal brain sections and transverse spinal cord sections were cut at 30 μm thickness. For the detection of BDA, sections were rinsed in 0.1M PB and incubated in 0.3% H2O2 for 30 min to inactivate endogenous peroxidase, followed by incubation for 2 hours with a Vectastain® ABC kit (Vector Laboratories, Burlingame, CA, USA). Staining was developed with 2,3′ diaminobenziine tetrahydrochloride (0.5 mg/ml in 0.1M PB). The number and length of midline-cross BDA+ fiber were assessed in a blinded manner Sections were analyzed with ImageJ software.

[8] = system: adult NSCs; test: Migration of neural stem cells on CSPGs (aggrecan coating); format: cell-based, mouse; conditions: 2.5 μM peptide, 21 hours, with or without aggrecan coating
Excerpt: Primary stem cells were obtained from C57BL/6J mice at 5 weeks of age. After euthanization, whole brains were immediately harvested and dissected under microscope to obtain the subventricular zone (SVZ) tissue. After mechanical dissociation with a stab knife, the tissue fragment were processed using trypsin and resuspended as individual cells at a density of 10^4 cell/cm^2 in neurobasal media with growth factors (epidermal growth factor and basic fibroblast growth factor) (NBM-GF). Subsequent passaging of cells were performed using Accutase® (innovative #AT-104, CA, USA) every 7 days until the cells established viable lines, and cellular debris was naturally diminished after each passage. At day 4 of each passage, the proliferating spheres were fed with NBM-GF. We used neurospheres at passage P3-P8 in this study.
To determine the effects of CSPGs on the migration of neural stem cells in vitro, flat-bottom 48-well plates were first coated with poly-L-lysine overnight, followed by a rinsing with water. Aggrecan (A1960, sigma) were coated onto the 48-well plates at the concentration of 1 ug/ml and 10 ug/ml diluted in sterile water overnight, followed by a rinsing with water. The control wells contained poly-L-lysine alone. […] The inner area and total area of neurospheres were measured by ImageJ software. […]

[9] = system: WT primary NSCs; test: Neural stem cell differentiation assay, neurite outgrowth (MAP2 immunostaining); format: cell-based, mouse; conditions: 2.5 μM peptide, differentiated in vitro for 5 days
Procedure: Briefly, glass coverslips in an untreated 24-well plate were coated with poly-ornithine and laminin After splitting neurospheres during passaging, individual cells were plated at a density of 10^4 cells/cm^2 in 500 μl of NBM-GF. Every other day, 250 μl of media was removed from each well and 300 μl of fresh NBM-GF was added. When the attached cell reached approximately 70% confluency (around day 5), all NBM-GF within each well was gently removed and immediately replaced with neurobasal media without growth factor (NBM) with ISP peptide (2.5 μM) or scramble peptide (2.5 μM). Each well was fed daily by removing 250 μl of the media and adding 300 μl of the media containing ISP or scramble peptide. On Day 5 after complete replacement of the NBM-GF, the wells were fixed with 4% paraformaldehyde for 15 min at room temperature and stored in phosphate-buffered saline at 4° C. until staining.
Cells cultured on coverslip were fixed in 4% PFA for 15 min, permeabilized in 0.1% Triton-X100 for 10 min and then incubated in 10% normal goat serum for 1 hour. […] Three coverslips were analyzed per condition. Random selections of field in each coverslip were chosen and imaged by Stereo Investigator Software (MBF Bioscience, Williston, VT, USA), and quantitative data was obtained by using NIH ImageJ software.

Row | Sequence | survival of stroke animals over time ([1]; continuous post-stroke treatment started 24 hours post-stroke, tMCAO mice, vehicle 44.828%) | survival rate of stroke animals ([1]; treatment initiated at 24 hours post stroke, daily S.C., vs vehicle) | locomotor function (total distance travelled, total horizontal activity, total vertical activity) ([2]; treatment from 24 h post-stroke, 2-4 weeks after stroke, vs vehicle) | open field locomotion performance (total distance, horizontal activity, vertical activity), delayed treatment ([2]; treatment initiated 7 days post stroke, 1 mg/kg/day for 3 weeks, by week four) | speed of tape removal, affected limb ([3]; affected front paw, vs vehicle) | tape removal, unaffected limb ([3]; unaffected front paw) | error trials to find the escape hole in the Barnes maze [4] | time to find the escape hole in the Barnes maze [4] | chronic atrophy of brain after stroke [5] | DCX+ neuroblasts near the lateral ventricle and adjacent striatal tissues [6] | axonal sprouting from contralateral corticospinal tract [7] | migration of adult NSCs (normalized migration index) [8] | neurite outgrowth (neurite length) in differentiated NSCs [9]
1 | GRKKRRQRRRCDMAEHMERLKANDSLKLSQEYESI [ISP] | 67.742% | improve the survival rate of stroke animals significantly | significantly increased | significant effects in improved performance | significantly improved the speed | without any obvious effects | less error trials | significantly less time | decreases the chronic atrophy of brain | enhanced | enhanced | alleviates the inhibition of CSPGs on NSCs migration | consistently increased neurite outgrowth
2 | GRKKRRQRRRCIREDDSLMLYALAQEKKESNMHES [scrambled ISP peptide, reference compound] |  |  |  |  |  |  |  |  |  |  |  |  | no effects
